{"source": "patent US11213509B2", "about": "“Compositions and methods for treating traumatic brain injury” (Ischemix, LLC, priority 2017, dated 2022)", "key": {"rat model of focal TBI": {"test_system": "rat model of focal TBI", "assay": "Morris water maze, rat model of focal TBI (BCCI)", "format": "in vivo", "settings": "for Improvement in escape latency relative to Day 1 / Morris water maze escape latency: 30 mg/kg; for Morris water maze escape latency: vs saline", "excerpt": "BCCI TBI to the medial frontal cortex (MFC) was induced by a cortical contusion device (Custom Design & Fabrication, Inc [CDF], Richmond, Va.). This device creates a reliable contusion injury to the exposed area of the brain with a brass-tipped impounder. (Hoffman et al., 1994). Rats were anesthetized with isoflurane (5%) (Novaplus™), and 02 (300 cm^3/min), and mounted in a stereotaxic frame. Under aseptic conditions, a sagittal incision was made in the scalp and the fascia retracted to expose the cranium. Then, a 6-mm diameter trephine drill was used to open the skull immediately anterior to the bregma. TBI of the MFC was made with a 5-mm-diameter rounded brass impactor attached to a computer-controlled piston propelled electronically with following parameters: velocity=2.5 m/s; depth=3 mm; duration=100 ms). After BCCI, any cortical surface hemorrhaging was controlled and the fascia and scalp sutured. The animals were allowed to recover in a warmed recovery chamber and appropriate post-operative care was taken. Treatment was delivered 30 minutes after injury and at approximately 24 hrs after injury. Two weeks after injury, rats were tested in the Morris water maze (MWM). The MWM is a well-characterized test of spatial learning and memory in rodents. The objective of the MWM is to teach rats that there is an escape platform located somewhere in a large, water filled pool. The rats are naturally motivated to escape the pool. The rats use extra-maze visual cues to locate the position of a submerged platform over a series of trials. The MWM test was conducted beginning at day 14 after traumatic brain injury. Rats were acclimated to the test room at least 1 hour prior to testing. The MWM consists of a circular pool (160 cm diameter×50 cm height) containing water that was made opaque with non-toxic black paint in order to hide the escape platform (see FIG. 4A). The water temperature was kept at 25±1° C. The water surface was 15 cm from the rim of the pool, and the inner wall was always carefully wiped to eliminate any local cues. The pool was located in a large room with a number of extra-maze visual cues, including highly visible geometric images (squares, triangles, circles, etc.) hung on the wall, diffuse lighting, and curtains to hide the experimenter and the awaiting rats. Behavior was tracked by a video camera hanging above the pool. Video tracking software (ANY-maze) recorded and analyzed the behavior of the animal in the pool. After training, the rats were gently dried with clean paper towels and placed in a warmed holding cage for the rats to dry before being returned to their home cage. Training: During training, the rat was placed into the water facing the wall of the pool and allowed to search for the platform. If the rat found the platform within 60 seconds, the trial was stopped, and the rat was allowed to stay on the platform for 30 seconds before being moved. If the platform was not found within 60 seconds, rats were placed on the platform for 30 sec in order to allow them time to learn the position of the platform in relation of the room's visual cues. Rats were given 4 trials a day for 4 days (days 14 to 17), with a 30 second interval between trials. The starting point was randomly rotated for every rat in each trial. Probe Trial: On the fifth day (day 18 after surgery), the rats received a probe trial. The probe test consisted of placing the animal in the pool for 60 seconds without the platform and monitoring the time spent in the four quadrants of the pool (see FIG. 4B). An animal that has learned the position of the platform will spend more time searching that target quadrant of the pool. During training, a submerged hidden target platform is placed in the pool and this region is defined as the target quadrant (see FIG. 4A). During the probe trial, the platform is removed and the duration of swimming in the different quadrants is tracked by the video camera and computer. […]"}, "[1]": {"test_system": "mitochondrial reactive oxygen species generation (mtROS)", "assay": "Mitochondrial reactive oxygen species generation 24 hours post-CCI, focal TBI model in piglets", "format": "in vivo", "settings": "p<0.0001 vs placebo", "protocol": "Study Design: A blinded, placebo controlled proof of concept trial of CMX-2043 was conducted in four-week-old piglets (8-10 kg). […] Sixteen piglets (n=16) were designated into three cohorts: 1) Controlled cortical impact (CCI) at the rostral gyrus treated with a bolus of CMX-2043 (n=5), 2) CCI injured animals treated with placebo (n=5) and 3) sham animals (n=6). CMX-2043 treated animals received an intravenous loading bolus of CMX-2043 (13.4 mg/kg) 1 hour post-TBI and a 4.5 mg/kg bolus at 13 hours post-TBI. Subjects were intubated, ventilated and anesthesia maintained on isoflurane (1.0%). Buprenorphine (0.02 mg/kg IM) was administered for analgesia immediately following intubation. Monitors recorded oxygen saturation, heart rate, respiration rate, rectal temperature, and end tidal CO2. […] All piglets were sacrificed between 24-25 hours post-TBI.\nMitochondrial Respiration and ROS Production: Twenty four hours post-CCI the ipsilateral penumbra and mirrored contralateral cortex were harvested. The rate of oxygen consumption was recorded via high-resolution Oroboros Oxygraph-2k™ with a specific Substrate-Uncouple-Inhibitor-Titration Protocol (SUIT). […] Maximal reserve capacity of the electron transfer system (ETSCI+CII) was measured by titrating the protonophore carbonyl cyanide p-(trifluoro-methoxy) phenylhydrazone (FCCP). […]"}, "[2]": {"settings": "day 18 following surgery, 30 mg/kg vs saline"}}}
{"compound": "CC(NC(=O)C(CCC(=O)O)NC(=O)CCCCC1CCSS1)C(=O)O", "note": "[CMX-2043, N—(R)-lipoyl-glutamylalanine]", "values": [{"measurement": "Improvement in escape latency relative to Day 1", "setting": "rat model of focal TBI; Day 2 of training", "value": 4.9, "unit": "s"}, {"measurement": "Improvement in escape latency relative to Day 1", "setting": "rat model of focal TBI; Day 3 of training", "value": 8.7, "unit": "s"}, {"measurement": "Improvement in escape latency relative to Day 1", "setting": "rat model of focal TBI; Day 4 of training, significantly better than saline", "value": 24.2, "unit": "s"}, {"measurement": "Morris water maze escape latency", "setting": "rat model of focal TBI; day 1 of training", "value": "longer latency times than saline treated animals"}, {"measurement": "Probe trial number of entries into the platform zone", "setting": "rat model of focal TBI; [2]", "value": "did not reveal a significant difference"}, {"measurement": "Probe trial time spent in the target quadrant", "setting": "rat model of focal TBI; [2]", "value": "did not show an overall difference"}, {"measurement": "Morris water maze escape latency", "setting": "rat model of focal TBI; final training day", "value": "significantly faster escape latency"}, {"measurement": "Morris water maze escape latency", "setting": "rat model of focal TBI; training days 2 and 3", "value": "no differences between groups"}, {"measurement": "Morris water maze swim distance", "setting": "rat model of focal TBI; training, 30 mg/kg vs saline", "value": "no difference"}, {"measurement": "Morris water maze swim speed", "setting": "rat model of focal TBI; training, 30 mg/kg vs saline", "value": "no difference"}, {"measurement": "Mitochondrial ROS (mtROS) generation", "setting": "[1]; contralateral", "value": "5.13±1.67 H2O2/(μmol O2/s*mg)"}, {"measurement": "Mitochondrial ROS (mtROS) generation", "setting": "[1]; ipsilateral", "value": "8.28±1.47 H2O2/(μmol O2/s*mg)"}]}
